Test results reported in patent US20250205230A1 (priority 2022, published 2025).
Converted amounts (≈) assume the structure as drawn. Where two headings read alike, the source gives them in different places.

Assays:
[1] = Solubility
[2] = test system: PERK; format: cell-based; settings: for increase in eIF2α phosphorylation: 20 μM, 0.1 MOI, lysed 24 h; for eIF2α phosphorylation (eIF2α-P relative to total eIF2α), in words: HEK293 infected at 0.1 MOI, 10 or 20 μM, lysed 24 hours post-infection
[3] = test system: VSVΔ51M; format: cell-based, vesicular stomatitis Indiana virus (VSV)
[4] = Lipophilicity (logD7.4); settings: for logD: pH 7.4
[5] = test system: VSVΔ51M; format: cell-based, vesicular stomatitis Indiana virus (VSV); settings: 10 μM
[6] = test system: TGEV (an alpha-coronavirus); settings: cited from earlier work
[7] = test system: ACE2; experiment: Oligosaccharide maturation of ACE2 in transfected HEK293 cells (western blot); format: cell-based; settings: Endo H or N-glycanase
[8] = test system: asialoglycoprotein receptor H2b; experiment: Oligosaccharide maturation of H2b in transfected HEK293 cells (western blot); format: cell-based; settings: Endo H
[9] = test system: PERK; experiment: eIF2α phosphorylation in non-infected HEK293 cells; format: cell-based; settings: lysed 24 hours post-treatment
[10] = test system: SARS-CoV-2; format: cell-based
[11] = treatment began at the start of the infection

With `Oc1ccc(C=NNc2nc(-c3ccccc3)cc(-c3ccccc3)n2)cc1O` (racemic) [GLB7, 4-((2-(4,6-diphenylpyrimidin-2-yl)hydrazono)methyl)benzene-1,2-diol] the solubility [1] was 16 µM (≈ 6.12 µg/mL), the “solubility compared to MK-28” value ([1]; ratio GLB7 vs MK-28) was “more than 10 fold” and the “increase in eIF2α phosphorylation” value [2, 11] was “about 1.5 fold”. For the same compound, the “eIF2α phosphorylation (eIF2α-P relative to total eIF2α), in words” value [2] was “strong increase”, the “infectivity (VSV-G level), in words” value [3] was “major decrease in infectivity” and the “decrease in infectivity (VSV-G relative to actin)” value ([3]; 20 μM) was “about 3 fold”. For the same compound, the “lipophilicity, in words” value ([4]; compared with MK-28) was “decreased lipophilicity”, the logD [4] was 3.6 and the “inhibition of replication, comparison between compounds” value [5] was “greater inhibition than MK-28”. For the same compound, the “reduction of titer of infectious virions” value [5] was “several orders of magnitude”.

For `O=C(COc1ccc(Cl)cc1)NC1CCC(NC(=O)COc2ccc(Cl)cc2)CC1` (centres unmarked) [ISRIB], the “expression of TGEV viral proteins and viral titers” value [6] is given as “increased”.

With `CN(N=Cc1ccc(O)c(O)c1)c1nc(-c2ccccc2)cc(-c2ccccc2)n1` [MK-28, 4-((2-(4,6-diphenylpyrimidin-2-yl)-2-methylhydrazineylidene)methyl) benzene-1,2-diol] the solubility [1] was 1.4 µM (≈ 0.555 µg/mL), the “increase in eIF2α phosphorylation” value ([2]; treatment began 3 hours after the start of the infection) was “about 4 fold” and the “increase in eIF2α phosphorylation” value [2, 11] was “about 5 fold”. The “eIF2α phosphorylation (eIF2α-P relative to total eIF2α), in words” value [2] was “strong increase”, the logD [4] was 4.5 and the “effect on maturation of ACE2” value [7] was “no effect”. For the same compound, the “effect on maturation of H2b” value [8] was “no effect”, the “inhibition of replication, comparison between compounds” value [5] was “greater inhibition of replication than did GLB7” and the “reduction of titer of infectious virions” value [5] was “several orders of magnitude”. The “increase in eIF2α phosphorylation” value ([9]; 10 μM) was “about 1.4 fold”, the “increase in eIF2α phosphorylation” value ([9]; 20 μM) was “about 1.1 fold” and the “reduction of SARS-CoV-2 replication (titer of infectious virions)” value [10] was 10- to 100 fold.
